Reference: patent US11952365B2, “Anti-viral compounds” (Aligos Therapeutics, Inc., priority 2020, dated 2024)
Like-named read-outs stand apart in the source and are kept apart here.

Key:
[1] = test system: human beta-coronavirus OC43; experiment: microbe, parasite or virus in culture; type: cell-based; details: Betacoronavirus 1, OC43, HeLa, 144 h, OC43 in HeLa cells, 6 days at 33° C., read-out: EC50
HRV3C = HRV3C (Human rhinovirus 14, UniProt P03303); experiment: HRV3C protease assay (duplex, SAMDI-MS); type: biochemical, HRV; details: 30 mins preincubation
Procedure, shortened: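 Duplex format with 3CLpro; 30 min enzyme–compound preincubation, 30 min reaction with two peptide substrates, ambient temp. Stop: 0.5% formic acid, neutralized with 1% NaHCO3 (finals). Readout SAMDI-MS, product AUC over internal standard AUC; four-parameter IC50.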

in vitro [2] = details: human
3CLpro = 3CLpro (Severe acute respiratory syndrome coronavirus 2, UniProt P0DTD1); experiment: SARS-CoV-2 3CLpro protease assay (duplex, SAMDI-MS); type: biochemical; set-up: For the duplex assay, 3CLpro and HRV3C was added; details: 30 mins preincubation
[3] = Cytotoxicity plates without OC43 virus (cell-titer-glo); type: cell-based, human; details: human; HeLa cells without OC43 virus, class symbols
Procedure, shortened: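 HeLa cells seeded overnight, then treated with serially diluted compounds in 2% FBS EMEM, uninfected, in parallel with the OC43 antiviral plates. Incubated 6 days at 33 °C; viability read by CellTiter-Glo luminescence.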

in vitro [4] = details: African green monkey, VeroE6 + CP (CC50), Vero E6-eGFP cells with CP-100356, absence of virus, MTS
human cathepsin L = target: T1, human cathepsin L (Homo sapiens, UniProt P07711); experiment: cathepsin L assay; type: biochemical; details: 10 pM human cathepsin L, Z-FR-AMC 2 μM, class symbols
T1 construct: purchased R&D Systems
Procedure, shortened: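 Human cathepsin L at 10 pM was preincubated 30 min with compound, then reaction started with Z-FR-AMC (2 μM final). Fluorescence (355/460 nm) read every 2 min for 30 min; IC50 from four-parameter curve fit.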

[5] = test system: SARS-CoV-2-GHB-03021/2020; experiment: SARS-CoV-2 Infection Model in Huh7 Cells; type: cell-based; details: Severe acute respiratory syndrome coronavirus 2, Huh-7, 96 h, SARS-CoV-2, day 4 p.i., MTS
[6] = test system: SARS-CoV-2-GHB-03021/2020; experiment: microbe, parasite or virus in culture; type: cell-based; details: Severe acute respiratory syndrome coronavirus 2, Vero C1008, 96 h; read-out: VeroE6 + CP (EC50)
[7] = HRV3C, class symbols, read-out: HRV IC50
[8] = 3CLpro, class symbols, read-out: SARS-Cov-2 IC50
[9] = HRV3C, bound, read-out: HRV IC50
[10] = 3CLpro, bound, read-out: SARS-Cov-2 IC50

| Compound | EC50 ([1]; class symbols) | IC50 (HRV3C; [7]) | CC50 (in vitro [2]) | IC50 (3CLpro; [8]) | CC50 at 6 days [3] | CC50 (in vitro [4]; numeric bounds) | IC50 (human cathepsin L) | EC50 ([5]; class symbols) | EC50 [6] | CC50 (in vitro [4]; class symbols) | IC50 (HRV3C; HRV IC50, HRV3C, bound) | EC50 ([1]; bound) | EC50 ([5]; numeric bounds) | IC50 (HRV3C; HRV IC50, HRV3C, class symbols) | IC50 (3CLpro; SARS-Cov-2 IC50, 3CLpro, class symbols) | IC50 (HRV3C; [9]) | IC50 (3CLpro; [10]) |
| --- | --- | --- | --- | --- | --- | --- | --- | --- | --- | --- | --- | --- | --- | --- | --- | --- | --- |
| O=C1NCC[C@H]1C[C@H](NC(=O)[C@@H]1[C@H]2CCC[C@H]2CN1C(=O)c1cc2c(Cl)cc(F)cc2[nH]1)C(=O)CO [Compound 90, (1S,3aR,6aS)-2-(4-chloro-6-fluoro-1H-indole-2-carbonyl)-N-[(2S)-4-hydroxy-3-oxo-1-[(3S)-2-oxopyrrolidin-3-yl]butan-2-yl]-hexahydro-1H-cyclopenta[c]pyrrole-1-carboxamide] | < 0.1 µM | 2 to 20 µM | > 50 µM | < 0.02 µM | > 10 µM | > 100 µM | ≥ 10 µM | < 1 µM | < 1 µM |  |  |  |  |  |  |  |  |
| O=C1NCC[C@H]1C[C@H](NC(=O)[C@@H]1[C@H]2CCC[C@H]2CN1C(=O)c1cc2c(Cl)cc(Cl)cc2[nH]1)C(=O)CO [Compound 91, (1S,3aR,6aS)-2-(4,6-dichloro-1H-indole-2-carbonyl)-N-[(2S)-4-hydroxy-3-oxo-1-[(3S)-2-oxopyrrolidin-3-yl]butan-2-yl]-hexahydro-1H-cyclopenta[c]pyrrole-1-carboxamide] | < 0.1 µM | 2 to 20 µM | > 10 µM | < 0.02 µM | > 10 µM |  | ≥ 10 µM | < 1 µM | < 1 µM | > 10 µM |  |  |  |  |  |  |  |
| COc1nccc2[nH]c(C(=O)N3C[C@@H]4CCC[C@@H]4[C@H]3C(=O)N[C@@H](C[C@@H]3CCNC3=O)C(=O)CO)cc12 [Compound 93, (1S,3aR,6aS)—N-[(2S)-4-hydroxy-3-oxo-1-[(3S)-2-oxopyrrolidin-3-yl]butan-2-yl]-2-{4-methoxy-1H-pyrrolo[3,2-c]pyridine-2-carbonyl}-hexahydro-1H-cyclopenta[c]pyrrole-1-carboxamide] | 1 to 10 µM |  | > 100 µM | < 0.02 µM | > 10 µM | > 50 µM | ≥ 10 µM | 10 to 100 µM | 10 to 100 µM |  | > 10 µM |  |  |  |  |  |  |
| C=CC12CN(C(=O)c3cc4c(OC)cccc4[nH]3)C(C(=O)N[C@@H](C[C@@H]3CCNC3=O)C(=O)C(=O)NC3CC3)(C1)C2 [Compound 98] |  | 0.02 to 0.2 µM | > 50 µM | 0.2 to 2 µM | > 10 µM |  | ≥ 10 µM |  | 10 to 100 µM | > 10 µM |  | > 10 µM | > 50 µM |  |  |  |  |
| COCCNC(=O)C(=O)[C@H](C[C@@H]1CCNC1=O)NC(=O)[C@@H]1[C@H]2CCC[C@H]2CN1C(=O)c1cc2c(OC)cccc2[nH]1 [Compound 100, (1S,3aR,6aS)-2-(4-methoxy-1H-indole-2-carbonyl)-N—((S)-4-((2-methoxyethyl)amino)-3,4-dioxo-1-((S)-2-oxopyrrolidin-3-yl)butan-2-yl)octahydrocyclopenta[c]pyrrole-1-carboxamide] | 1 to 10 µM |  | > 50 µM |  | > 10 µM | > 100 µM | ≥ 10 µM | 10 to 100 µM | 10 to 100 µM |  |  |  |  | 0.2 to 2 µM | 0.02 to 0.2 µM |  |  |
| COc1cccc2[nH]c(C(=O)N3C[C@@H]4CCC[C@@H]4[C@H]3C(=O)N[C@@H](C[C@@H]3CCNC3=O)C(=O)C(=O)NCCOCc3ccccc3)cc12 [Compound 101] | 0.1 to 1 µM | 0.2 to 2 µM | > 50 µM | < 0.02 µM | > 10 µM |  | ≥ 10 µM | 1 to 10 µM | 1 to 10 µM | > 10 µM |  |  |  |  |  |  |  |
| COc1cccc2[nH]c(C(=O)N3CCc4ccccc4[C@H]3C(=O)N[C@@H](C[C@@H]3CCNC3=O)C(=O)C(=O)NC3CC3)cc12 [Compound 102] | 1 to 10 µM |  | > 100 µM | 0.2 to 2 µM | > 10 µM | > 100 µM | ≥ 10 µM | 10 to 100 µM | 1 to 10 µM |  |  |  |  |  |  | > 10 µM |  |
| COc1cccc2[nH]c(C(=O)N3C[C@@H]4CCC[C@@H]4[C@H]3C(=O)N[C@@H](C[C@@H]3CCNC3=O)C(=O)C(=O)N[C@H]3CCOC3)cc12 [Compound 103] |  | 0.2 to 2 µM | > 100 µM | 0.02 to 0.2 µM | > 10 µM | > 100 µM | ≥ 10 µM | 10 to 100 µM | 10 to 100 µM |  |  | > 10 µM |  |  |  |  |  |
| COc1cccc2[nH]c(C(=O)N3C[C@@H]4CCC[C@@H]4[C@H]3C(=O)N[C@@H](C[C@@H]3CCNC3=O)C(=O)C(=O)NC3CCOCC3)cc12 [Compound 104] |  | 0.2 to 2 µM | > 100 µM | 0.2 to 2 µM | > 10 µM | > 100 µM | ≥ 10 µM | 10 to 100 µM | 10 to 100 µM |  |  | > 10 µM |  |  |  |  |  |
| COc1cccc2[nH]c(C(=O)N3C[C@@H]4CCC[C@@H]4[C@H]3C(=O)N[C@@H](C[C@@H]3CCNC3=O)C(=O)C(=O)N[C@@H]3CCOC3)cc12 [Compound 105] |  | 0.2 to 2 µM | > 100 µM | 0.02 to 0.2 µM | > 10 µM | > 100 µM | ≥ 10 µM | 10 to 100 µM | 10 to 100 µM |  |  | > 10 µM |  |  |  |  |  |
| COc1cccc2[nH]c(C(=O)N3CCc4ccccc4[C@H]3C(=O)N[C@@H](C[C@@H]3CCNC3=O)C(=O)CO)cc12 [Compound 106] | 1 to 10 µM | 2 to 20 µM | > 10 µM | 0.2 to 2 µM | > 10 µM | > 50 µM | ≥ 10 µM | 10 to 100 µM | 10 to 100 µM |  |  |  |  |  |  |  |  |
| COc1cccc2[nH]c(C(=O)N3C[C@@H]4CCC[C@@H]4[C@H]3C(=O)N[C@@H](C[C@@H]3CCNC3=O)C(=O)C(=O)NCCO)cc12 [Compound 107, (1S, 3aR, 6aS)—N—((S)-4-((2-hydroxyethyl)amino)-3,4-dioxo-1-((S)-2-oxopyrrolidin-3-yl)butan-2-yl)-2-(4-methoxy-1H-indole-2-carbonyl)octahydrocyclopenta[c]pyrrole-1-carboxamide] |  | 0.2 to 2 µM | > 50 µM | < 0.02 µM | > 10 µM | > 100 µM | ≥ 10 µM | 10 to 100 µM | 10 to 100 µM |  |  | > 10 µM |  |  |  |  |  |
| O=C1NCC[C@H]1C[C@H](NC(=O)[C@@H]1[C@H]2CCC[C@H]2CN1C(=O)c1cc2c3c(ccc2[nH]1)CCO3)C(=O)CO [Compound 108, (1S,3aR,6aS)-2-{2H,3H,6H-furo[2,3-e]indole-7-carbonyl}-N-[(2S)-4-hydroxy-3-oxo-1-[(3S)-2-oxopyrrolidin-3-yl]butan-2-yl]-hexahydro-1H-cyclopenta[c]pyrrole-1-carboxamide] | 0.1 to 1 µM |  | > 50 µM | 0.02 to 0.2 µM | > 10 µM | > 50 µM | ≥ 10 µM | 10 to 100 µM | 1 to 10 µM |  |  |  |  |  |  | > 10 µM |  |
| COc1cccc2[nH]c(C(=O)N3C[C@@H]4CCC[C@@H]4[C@H]3C(=O)N[C@@H](C[C@@H]3CCNC3=O)C(=O)C(=O)N(C)C)cc12 [Compound 110] |  |  | > 50 µM |  | > 10 µM | > 50 µM | ≥ 10 µM |  | > 50 µM |  |  | > 10 µM | > 50 µM |  |  | > 10 µM | > 10 µM |
| O=C(NCc1ccccc1)C(=O)[C@H](Cc1cccnc1)NC(=O)[C@@H]1CC2(CC2)CN1C(=O)c1cc2ccccc2[nH]1 [Compound 111, (S)—N—((S)-4-(benzylamino)-3,4-dioxo-1-(pyridin-3-yl)butan-2-yl)-5-(1H-indole-2-carbonyl)-5-azaspiro[2.4]heptane-6-carboxamide] | 10 to 100 µM |  | > 10 µM |  | > 10 µM | > 100 µM | < 0.1 µM | 1 to 10 µM | > 100 µM |  |  |  |  |  |  | > 10 µM | > 10 µM |
